In data set [1] the target is PKAc (catalytic subunit of PKA, PKAcα 16-351) (Mus musculus, UniProt P05132). In words: ADP-Glo kinase assay, Michaelis-Menten kinetics of PKAc phosphorylation of substrates. The settings on record: for kcat / Km / kcat/Km: ADP-Glo, 3 nM PKAc, 1 mM ATP, 5 mM Mg2+; for kcat / Km: substrate 0-256 μM, room temperature 30 min; for kcat: 50 mM Hepes pH 7.4, 150 mM KCl, mean ± SD of n = 3 or 4 biological replicates, less reliable for poor substrates; for Km: Michaelis-Menten fit; for Km / kcat/Km: mean ± SD of n = 3 or 4; for reduction in kcat/Km versus WT Ser1981 peptide: from kcat/Km of Table 2.
Method: We used enzyme kinetics to investigate the activity of catalytic subunit of PKA (PKAc) toward the three target sites within the C terminus of CaV1.2. We performed discontinuous kinase assays using an ADP-GloMax Assay kit.
Kinase assays were conducted using an ADP-Glo Kinase Assay Kit (Promega). […] Therefore, we performed assays with excess ATP (1 mM) and Mg^2+ (5 mM) to saturate PKAc prior to substrate binding. Reagents were prepared as described in the kit, aliquoted, and frozen at −20 °C prior to use. Reactions were conducted in 384-well solid white polystyrene microplates (Corning). Peptide substrates and EFPreIQ were dissolved and/or diluted to 800 μM using 50 mM Hepes (pH 7.4), 150 mM KCl, 5 mM MgCl2, and 4 mM TCEP. […] For peptides lacking tryptophan, the amount of volume needed to achieve a concentration of 800 μM was calculated prior to dissolving. The peptides/substrate was 2-fold serially diluted using the same buffer to create 11 reactions per curve ranging from 0 to 256 μM. ATP was added to each reaction to achieve a final concentration of 1 mM. Reactions were initiated by the addition of thawed PKAc at a final concentration of 3 nM at a final well volume of 20 μl. After allowing reactions to occur at room temperature for 30 min, 3 × 5 ml from each reaction in a curve was taken and mixed with 5 ml ADP-Glo Reagent for a total of three technical replicates per biological replicate. After 40 min, 10 ml of kinase detection reagent was added to each technical replicate and, after waiting 60 min, relative luminescence unit were measured using a VICTOR X4 Multilabel Plate Reader (PerkinElmer).
The relative luminescence unit values were converted to specific activity values via interpolation of a standard curve that was created in accordance with the manufacturer’s protocol. The three technical replicates were averaged to calculate a biological replicate value and plotted against peptide concentration using GraphPad 9 (Prism) software (https://www.graphpad.com/updates/prism-900-release-notes). Technical replicate values resulting from experimental error were removed from the dataset and subsequent averaging. […] The Michaelis–Menten kinetics fitting function was used to generate a nonlinear regression to calculate both a Km constant and Vmax value for each biological replicate curve. These Km constant and Vmax values were averaged and SDs are reported. Figures displaying data points and Michaelis–Menten curves depict the average specific activity values calculated from all biological replicates in the three or four experiments (n = 3 or n = 4) per peptide (n = 4 for Ser1981 and Ser272 peptides, n = 3 for all others).

The target in data set [2] is T1, PKAc:AMP-PNP (Mus musculus, UniProt P05132).
T1 construct: 6xHis (N, cleaved yes); made in house; host or cells: Escherichia coli Rosetta (DE3)pLysS
Nature of the data set: Isothermal titration calorimetry of substrates binding to PKAc:AMP-PNP. The method, then: As an independent means to assess which substrate peptides are preferred by PKAc, we used ITC to determine the inherent affinities for the various peptides. ITC also provides the enthalpy and entropy changes upon binding and can thus help provide a rationale for different affinities. The ITC experiments were performed using excess Mg^2+ (5 mM) and 0.5 mM adenylyl-imidodiphosphate (AMP)-PNP (a nonhydrolyzable ATP analog) (Fig. 2).
ITC experiments were conducted using a MicroCal iTC200 (GE Healthcare, now Malvern) instrument. The ITC/assay buffer was used to dissolve peptides to a concentration of 1.25 to 4.3 mM. Substrate concentrations were optimized and chosen based on how much was needed to achieve sufficient signal to noise ratio. Rad Ser25 peptide contained a tryptophan residue, which allowed us to determine its concentration via 280 nm absorbance readings using an extinction coefficient of 5500 M^−1 cm^−1. For peptides lacking a tryptophan or tyrosine residue (Ser1981 WT and mutant peptides, Ser1718 peptide, Ser272 peptide, and Ser300 peptide), the amount of volume needed to achieve the desired concentration was calculated prior to diluting. Peptides were received as powder in 1 mg aliquots and using molecular weights of the peptide, the number of moles in each aliquot was determined. The number of moles was used to determine how much volume was required to achieve the desired concentration. AMP-PNP (Millipore Sigma) was dissolved in ITC/Assay buffer to a concentration of 100 mM, aliquoted in 20 μl volumes, and stored at −70 °C. Prior to each run, both titrant and titrand solutions were supplemented with AMP-PNP to a final concentration of 500 μM. The titration experiments were conducted at 4 °C with a stirring speed of 500 RPM. Each titration experiment was comprised of 20 injections with 230 s in between each injection. Each injection totalled 2.0 μl over 4 s except the first injection being 0.4 μl over 0.8 s. Background runs of peptide/substrate into ITC/assay buffer were conducted to generate a linear regression using the isotherm to subtract background heats from experimental runs. Peptides displaying large background heats were dialyzed in ITC/assay buffer for 60 min to remove contaminants remaining from peptide synthesis. The peptide into PKAc runs (experimental runs) utilized the same settings. The data was processed using Origin (Version 7.0, OriginLab) software (https://www.originlab.com/origin).
(ITC needs no label: the signal is the heat of the interaction.)

Where [3] appears, read: ITC, 4 °C, 0.5 mM AMP-PNP, 5 mM MgCl2, mean ± SD, n = 3.
[4] abbreviates: 4 °C, 0.5 mM AMP-PNP, 5 mM MgCl2.

No end group written: not given here.

By kcat is commonly meant the number of substrate molecules converted per active site and unit of time at saturation. In general, Km refers to the concentration of substrate that gives half-maximal velocity. For orientation: kcat/Km means the turnover number divided by the Michaelis constant.

With LRRASLG [Kemptide, reference compound], in data set [1], the kcat turned out to be 19.0 ± 1.5 s⁻¹, the Km was 42.6 ± 2.4 µM and the kcat/Km worked out at 470000 ± 50000 M⁻¹ s⁻¹.
Regarding “RGFLRSARLGRRASFHL [S1975R peptide, CaV1.2 S1981 peptide mutant S1975R]”, in data set [1], the catalytic constant (kcat) came out at 7.5 ± 0.9 s⁻¹, the Michaelis-Menten constant (Km) was determined as 6.2 ± 2.7 µM, the kcat/Km was 1.2e+06 ± 500000 M⁻¹ s⁻¹ and the “reduction in kcat/Km versus WT Ser1981 peptide” value is 37%. In data set [2] (setting [3]), the ΔG is -5.11 ± 2.2 kcal/mol and the “−TΔS” value was -8.6 ± 2.2 kcal/mol. Besides, in data set [2] (ITC, from KD of Table 3), the “reduction in affinity for PKAc versus WT Ser1981 peptide” value is reported as “more than 15 fold”.
On to “RGFLRSASLGRAASFHL [R1979A peptide, CaV1.2 S1981 peptide mutant R1979A]”, for which, in data set [1] (ADP-Glo kinase assay), the “enzymatic activity of PKAc toward the peptide” value is listed as “very low”. In addition, the kcat in data set [1] was found to be 1.1 ± 0.1 s⁻¹. The “binding to PKAc detected by ITC” value in data set [2] (setting [4]) is on record as “no longer detect any interaction”.
On to RGFLRSASLGRRASAHL [F1982A peptide], for which the “reduction in kcat/Km versus WT Ser1981 peptide” value in data set [1] is approximately 26%.
As for “RTLHDIGPEIRRAISGDL [S1718 peptide, synthetic peptide, human CaV1.2 residues 1704–1721 containing Ser1718]”, the kcat in data set [1] stood at 3.4 ± 1.3 s⁻¹. Besides, the “binding to PKAc detected by ITC” value in data set [2] (setting [4]) is given as “could not detect any heat signals indicative of binding”.
The like results for “SNADYLTRDWSILG… [EFPreIQ (S1535), recombinant human CaV1.3 residues 1468–1598 (EF-hand and PreIQ domain) mimicking the CaV1.2 Ser1535 site]” were, in that order, 1.3 ± 0.2 s⁻¹ and “could not detect any heat signals indicative of binding”.
For “SRKMAFRAKSKSCHD [Rad S300 peptide, Rad-derived peptide, residues 289–303 containing Ser300]”, the kcat in data set [1] came to 3.3 ± 1.4 s⁻¹. Besides, the “binding to PKAc detected by ITC” value in data set [2] (setting [4]) was “not”.
With “WGPAPPLHRRSMP [Rad S38 peptide, Rad-derived peptide, residues 28–40 containing Ser38]”, the kcat in data set [1] was 2 ± 1.9 s⁻¹; in data set [1] (listed as Ser38), 2.0 ± 1.9 s⁻¹. The “binding to PKAc detected by ITC” value in data set [2] (setting [4]) is recorded as “not”.

These data come from paper PMC11728977, “Crystallographic, kinetic, and calorimetric investigation of PKA interactions with L-type calcium channels and Rad GTPase” (The Journal of Biological Chemistry, 2024).
